This is an account of results in patent publication US10253081B2, “Glucagon analogues” (Zealand Pharma A/S, priority 2012, dated 2019).

*1 amine or outer side, *2 acyl side, *3 side chain or, on linkers, in order; H or OH if unused. Where a SMILES comes first, the peptide text is derived from it. Side-chain parts run from the residue outwards. [ ]: non-standard residue; d: D form. The star is where a group is joined. γGlu = O=C(O)[C@H](CCC(=O)[*:2])N[*:1]; Palmitoyl = CCCCCCCCCCCCCCCC(=O)*; Aib = CC(C)(N)C(=O)O

What all share (format): cell-based
For experiment [1], the target named is T1, endogenous GLP-1 receptors (Mus musculus, UniProt O35659).
T1 construct: Agonistic activity of the test compounds on endogenous GLP-1 receptors; endogenous in cells
T1 sequence (O35659 22-463): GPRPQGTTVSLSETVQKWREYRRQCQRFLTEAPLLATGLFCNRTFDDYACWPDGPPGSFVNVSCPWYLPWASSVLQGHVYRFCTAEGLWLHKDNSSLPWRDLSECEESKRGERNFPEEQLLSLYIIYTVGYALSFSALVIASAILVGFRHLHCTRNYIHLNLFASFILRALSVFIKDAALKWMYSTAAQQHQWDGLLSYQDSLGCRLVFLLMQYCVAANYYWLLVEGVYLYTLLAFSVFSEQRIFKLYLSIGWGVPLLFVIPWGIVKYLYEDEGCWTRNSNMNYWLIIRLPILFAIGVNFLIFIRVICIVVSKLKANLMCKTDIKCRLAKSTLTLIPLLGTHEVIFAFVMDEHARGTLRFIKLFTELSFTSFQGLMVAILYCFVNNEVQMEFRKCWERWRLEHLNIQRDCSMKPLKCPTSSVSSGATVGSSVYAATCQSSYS
The experiment is described as follows: Agonistic activity on endogenous GLP-1 receptor (cAMP, murine insulinoma cell line). Particulars: intracellular cAMP, 15 minutes at 26° C.; read-out: EC50 GLP-1R (murine insulinoma cells). The method, then:
Agonistic activity of the test compounds on endogenous GLP-1 receptors was determined using a murine insulinoma cell line. Intracellular cAMP was used an indicator of receptor activation.
Cells were cultured for 24 h at a density of 10,000 cells/well in a 384-well plate. Medium was removed and 10 μL KRBH buffer (NaCl 130 mM, KCl 3.6 mM, NaH2PO4 0.5 mM, MgSO4 0.5 mM, CaCl2) 1.5 mM) containing test compound or GLP-1 (at increasing concentrations from […] to 100 nM) or solvent control (0.1% (v/v) DMSO) was added to the wells for 15 minutes at a temperature of 26° C.
The cellular cAMP content is measured using the AlphaScreen cAMP Functional Assay Kit (Perkin Elmer). Measurement was performed using the Envision (PerkinElmer) according to manufacturer's recommendations.
All measurements were performed in quadruplicate.
Results were converted into cAMP concentrations using a cAMP standard curve prepared in KRBH buffer containing 0.1% (v/v) DMSO. The resulting cAMP curves were plotted as absolute cAMP concentrations (nM) over log (test compound concentration) and analyzed using the curve fitting program XLfit.
Parameters calculated to describe the both the potency as well as the agonistic activity of each test compound on the endogenous GLP-1 receptors were:
pEC50 (negative logarithmic value of EC50, a concentration resulting in a half-maximal elevation of cAMP levels, reflecting the potency of the test compound);
Percent control (% CTL)(% cAMP elevation for each test compound concentration normalized based on the GLP-1-induced maximum cAMP response (100% CTL)).

The target of experiment [2] is T2, human glucagon receptor (Glucagon-R) (Homo sapiens, UniProt P47871).
T2 construct: expressed in transfected cells
T2 sequence (P47871 26-477): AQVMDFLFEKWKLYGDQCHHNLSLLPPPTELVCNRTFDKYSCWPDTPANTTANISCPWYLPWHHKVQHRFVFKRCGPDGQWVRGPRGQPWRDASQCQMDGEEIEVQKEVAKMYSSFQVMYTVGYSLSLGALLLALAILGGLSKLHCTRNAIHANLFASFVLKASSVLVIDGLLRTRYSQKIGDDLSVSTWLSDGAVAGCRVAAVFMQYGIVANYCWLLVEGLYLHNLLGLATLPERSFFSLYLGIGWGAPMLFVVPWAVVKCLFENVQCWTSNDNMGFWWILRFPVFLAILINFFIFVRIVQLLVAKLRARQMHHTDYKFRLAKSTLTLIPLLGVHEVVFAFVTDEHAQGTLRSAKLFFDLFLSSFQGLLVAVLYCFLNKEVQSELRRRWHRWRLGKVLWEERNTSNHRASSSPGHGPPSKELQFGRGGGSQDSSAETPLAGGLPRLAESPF
The experiment is described as follows: Glucagon receptor efficacy assay (cAMP AlphaScreen, CHO cells). Particulars: Table 1B; same protocol, different laboratory; read-out: EC50 hGCGR CHO-K1. From the text: (§1) The cDNA encoding either the human glucagon receptor (Glucagon-R) (primary accession number P47871) or the human glucagon-like peptide 1 receptor (GLP-1R) (primary accession number P43220) were synthesized and cloned into a mammalian expression vector containing a Zeocin resistance marker.
(§2) The mammalian expression vectors encoding the Glucagon-R or the GLP-1-R were transfected into Chinese hamster ovary (CHO) cells by the Attractene method method. Stably expressing clones were obtained by Zeocin selection (250 μg/mL) upon limited dilution of cells resistant to the selection pressure. Glucagon-R and GLP-1-R cell clones expressing were picked, propagated and tested in the Glucagon-R and GLP-1-R efficacy assays as described below. One Glucagon-R expressing clone and one GLP-1-R expressing clone were chosen for compound profiling.
(§3) CHO cells expressing the human Glucagon-R, or human GLP-1-R were seeded 24 hours prior to the assay at 30,000 cells per well in 96-well microtiter plates in culture in 100 μl growth medium. On the day of analysis, growth medium was removed and the cells were washed once with 200 μl of assay buffer (Krebs-Ringer-buffer—KRBH). The buffer was removed and the cells were incubated for 15 min at room temperature in 10 μl KRBH (KRBH+10 mM HEPES, 5 mM NaHCO3, 0.1% (V/V) BSA) with 0.1 mM IBMX in deionized water containing increasing concentrations of test peptides. The reaction was stopped by the addition of lysis buffer (0.1% w/v BSA, 5 mM HEPES, 0.3% v/v Tween-20). After cell lysis for 10 min at room temperature, lysates were transferred to 384-well plates and 10 μl of acceptor/donorbead mixture as contained in the AlphaScreen™ cAMP Functional Assay Kit was added. After one hour of incubation at room temperature in the dark, the cAMP content was determined applying the AlphaScreen™ cAMP Functional Assay Kit from Perkin-Elmer according to manufacturer instructions. EC50 and relative efficacies compared to reference compounds (glucagon and GLP-1) were calculated applying computer aided curve fitting. The GLP-1/glucagon ratio is calculated as defined earlier.

For experiment [3], the target named is T3, human glucagon-like peptide 1 receptor (GLP-1R) (Homo sapiens, UniProt P43220).
T3 construct: expressed in transfected cells
T3 sequence (P43220 24-463): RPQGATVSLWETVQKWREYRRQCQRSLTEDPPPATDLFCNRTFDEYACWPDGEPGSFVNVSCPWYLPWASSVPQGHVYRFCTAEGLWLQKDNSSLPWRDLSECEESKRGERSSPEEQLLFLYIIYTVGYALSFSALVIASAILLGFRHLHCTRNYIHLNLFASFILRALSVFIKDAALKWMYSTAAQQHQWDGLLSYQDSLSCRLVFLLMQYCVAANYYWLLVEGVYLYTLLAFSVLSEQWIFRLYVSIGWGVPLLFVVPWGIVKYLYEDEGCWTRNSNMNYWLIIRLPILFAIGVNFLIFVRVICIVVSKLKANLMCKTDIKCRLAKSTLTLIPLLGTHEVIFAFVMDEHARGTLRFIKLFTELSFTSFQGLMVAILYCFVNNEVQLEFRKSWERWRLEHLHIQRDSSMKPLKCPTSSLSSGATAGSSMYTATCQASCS
The experiment is described as follows: GLP-1 receptor efficacy assay (cAMP AlphaScreen, CHO cells). The settings on record: Table 1B; for Ratio GLP-1/Glucagon: EC50 [GLP-1R]/EC50 [Glucagon-R]; for EC50: same protocol, different laboratory, read-out: EC50 hGLP-1R CHO-K1.
From the text: as §1, §2, §3
(In general: Alpha assays give light when donor and acceptor beads are brought close together.)

Experiment [4] deals with T4, endogenous glucagon receptor (Rattus norvegicus, UniProt P30082).
T4 construct: Agonistic activity of the test compounds on endogenous glucagon receptor; endogenous in cells; host or cells: primary rat hepatocytes
T4 sequence (P30082 27-485): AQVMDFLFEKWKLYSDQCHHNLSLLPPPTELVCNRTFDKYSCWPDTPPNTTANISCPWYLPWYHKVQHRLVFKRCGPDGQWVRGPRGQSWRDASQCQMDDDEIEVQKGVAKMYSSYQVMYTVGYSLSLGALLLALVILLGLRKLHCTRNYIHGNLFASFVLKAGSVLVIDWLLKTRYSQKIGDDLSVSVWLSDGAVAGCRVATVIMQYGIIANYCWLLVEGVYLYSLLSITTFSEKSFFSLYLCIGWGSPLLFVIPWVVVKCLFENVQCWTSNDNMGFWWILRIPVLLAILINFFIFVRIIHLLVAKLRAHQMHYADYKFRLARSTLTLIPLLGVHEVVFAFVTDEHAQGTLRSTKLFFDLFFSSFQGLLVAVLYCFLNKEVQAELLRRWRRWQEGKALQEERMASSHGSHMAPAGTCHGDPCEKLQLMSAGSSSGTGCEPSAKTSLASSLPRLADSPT
The experiment is described as follows: Agonistic activity on endogenous glucagon receptor (glycogen synthesis rate in primary rat hepatocytes). The settings on record: inhibition of glycogen synthesis rate, 3 hours, read-out: EC50 GLP-1R Rat hepat. The procedure: Agonistic activity of the test compounds on endogenous glucagon receptor was determined by measuring their effect on rate of glycogen synthesis in primary rat hepatocytes. Upon activation of the glucagon receptor, an inhibition of the glycogen synthesis rate is expected. Rate of glycogen synthesis was determined by counting the amount of radioactively labeled glucose incorporated into the cellular glycogen stores in a defined period of time.
Primary rat hepatocytes were cultured at a density of 40,000 cells/well in a 24-well plate for 24 hours at 37° C. and 5% CO2.
Medium was discarded and the cells washed with PBS. 180 μL of KRBH-based buffer containing 0.1% BSA and glucose at a concentration of 22.5 mM was then added to the wells, followed by test compound and 40 μCi/ml D-[U14C] glucose (20 μL each). Incubation was continued for 3 hours.
At the end of the incubation period, the incubation buffer was aspirated and cells washed once with ice-cold PBS before lysis by incubation for 30 min at room temperature with 100 μL 1 mol/l NaOH.
Cell lysates were transferred to 96-well filter plates and glycogen precipitated by incubating the filter-plates for 120 min at 4° C. followed by washing the filter plates 4 times with ice-cold ethanol (70%). The resulting precipitates were filtered to dryness and the amount of incorporated ^14C-glucose determined by using a Topcount scintillation counter according to manufacturer's recommendations.
Wells with vehicle controls (0.1% (v/v) DMSO in KRBH buffer) were included as reference for non-inhibited glycogen synthesis (100% CTL). Wells without added D-[U^14C] glucose were included as controls for non-specific background signal (subtracted from all values). Endogenous glucagon peptide was used as a positive control.
All treatments were performed at least in triplicates.
Parameters calculated to describe the both the potency as well as the agonistic activity of each test compound on the endogenous glucagon receptor are pEC50 and % CTL. % CTL is determined by calculating the percentage of CPM/well in the presence of the test compound compared to the CPM/well of the vehicle control after subtracting the background CPM/well: [CPM/well(basal)−CPM/well(sample)]*100/[CPM/well(basal)−CPM/well(control)]
An activator of the glucagon receptor will result in an inhibition of the glycogen synthesis rate and will give % CTL values between 0% CTL (complete inhibition) and 100% CTL (no observable inhibition).
The resulting activity curves were plotted as absolute counts (unit: cpm/sample) over log (test compound concentration) and analyzed using the curve fitting program XLfit.
pEC50 (negative logarithmic value of EC50) reflects the potency of the test compound.
The terms EC50 and pEC50 quoted in relation to GLP-1R activation could equally be regarded as IC50 and pIC50 in relation to glycogen synthesis.

For the compound `CCCCCCCCCCCCCCCC(=O)N[C@@H](CCC(=O)NCCCC[C@H](NC(=O)[C@H](CO)NC(=O)[C@H](CCC(=O)O)NC(=O)[C@H](CC(C)C)NC(=O)[C@H](Cc1ccc(O)cc1)NC(=O)[C@H](CCCCN)NC(=O)[C@H](CO)NC(=O)[C@H](Cc1ccc(O)cc1)NC(=O)[C@H](CC(=O)O)NC(=O)[C@H](CO)NC(=O)[C@@H](NC(=O)[C@H](Cc1ccccc1)NC(=O)[C@@H](NC(=O)CNC(=O)[C@H](CCC(N)=O)NC(=O)C(C)(C)NC(=O)[C@@H](N)Cc1c[nH]cn1)[C@@H](C)O)[C@@H](C)O)C(=O)N[C@@H](C)C(=O)N[C@@H](C)C(=O)N[C@@H](Cc1c[nH]cn1)C(=O)N[C@@H](CC(=O)O)C(=O)N[C@@H](Cc1ccccc1)C(=O)N[C@H](C(=O)N[C@@H](CCC(=O)O)C(=O)N[C@@H](Cc1c[nH]c2ccccc12)C(=O)N[C@@H](CC(C)C)C(=O)N[C@@H](CCC(=O)O)C(=O)N[C@@H](CO)C(=O)N[C@@H](C)C(N)=O)C(C)C)C(=O)O` [Compound 23, H-H-Aib-QGTFTSDYSKYLES-K(Hexadecanoyl-isoGlu)-AAHDFVEWLESA-NH2] (H-H[Aib]QGTFTSDYSKYLESK([γGlu-Palmitoyl])AAHDFVEWLESA-NH2), the EC50 (in general, the midpoint of the concentration-response curve) in experiment [1] turned out to be 0.31 nM; in experiment [2], 0.25 nM; in experiment [3], 0.13 nM; in experiment [4] it was 1.32 nM. The “Ratio GLP-1/Glucagon” value in experiment [3] amounted to 0.52.
For `CCCCCCCCCCCCCCCC(=O)N[C@@H](CCC(=O)NCCCC[C@H](NC(=O)[C@H](CO)NC(=O)[C@H](CCC(=O)O)NC(=O)[C@H](CC(C)C)NC(=O)[C@H](Cc1ccc(O)cc1)NC(=O)[C@H](CCCCN)NC(=O)[C@H](CO)NC(=O)[C@H](Cc1ccc(O)cc1)NC(=O)[C@H](CC(=O)O)NC(=O)[C@H](CO)NC(=O)[C@@H](NC(=O)[C@H](Cc1ccccc1)NC(=O)[C@@H](NC(=O)CNC(=O)[C@H](CCC(N)=O)NC(=O)C(C)(C)NC(=O)[C@@H](N)Cc1c[nH]cn1)[C@@H](C)O)[C@@H](C)O)C(=O)N[C@@H](C)C(=O)N[C@@H](C)C(=O)N[C@@H](CCC(=O)O)C(=O)N[C@@H](CC(=O)O)C(=O)N[C@@H](Cc1ccccc1)C(=O)N[C@H](C(=O)N[C@@H](CCC(=O)O)C(=O)N[C@@H](Cc1c[nH]c2ccccc12)C(=O)N[C@@H](CC(C)C)C(=O)N[C@@H](CCC(=O)O)C(=O)N[C@@H](CO)C(=O)N[C@@H](C)C(N)=O)C(C)C)C(=O)O` [Compound 24, H-H-Aib-QGTFTSDYSKYLES-K(Hexadecanoyl-isoGlu)-AAEDFVEWLESA-NH2] (H-H[Aib]QGTFTSDYSKYLESK([γGlu-Palmitoyl])AAEDFVEWLESA-NH2), the EC50 was determined as 0.33 nM in experiment [1], 0.92 nM in experiment [2], 0.11 nM in experiment [3] and 6.15 nM in experiment [4]. Moreover, the “Ratio GLP-1/Glucagon” value in experiment [3] was determined as 0.12.
The matching figures for `CCCCCCCCCCCCCCCC(=O)N[C@@H](CCC(=O)NCCCC[C@H](NC(=O)[C@H](CCC(=O)O)NC(=O)[C@H](CC(=O)O)NC(=O)[C@H](CC(C)C)NC(=O)[C@H](Cc1ccc(O)cc1)NC(=O)[C@H](CCCCN)NC(=O)[C@H](CO)NC(=O)[C@H](Cc1ccc(O)cc1)NC(=O)[C@H](CC(=O)O)NC(=O)[C@H](CO)NC(=O)[C@@H](NC(=O)[C@H](Cc1ccccc1)NC(=O)[C@@H](NC(=O)CNC(=O)[C@H](CCC(N)=O)NC(=O)[C@@H](CO)NC(=O)[C@@H](N)Cc1c[nH]cn1)[C@@H](C)O)[C@@H](C)O)C(=O)N[C@@H](C)C(=O)N[C@@H](C)C(=O)N[C@@H](CCCCN)C(=O)N[C@@H](CC(=O)O)C(=O)N[C@@H](Cc1ccccc1)C(=O)N[C@H](C(=O)N[C@@H](CCC(=O)O)C(=O)N[C@@H](Cc1c[nH]c2ccccc12)C(=O)N[C@@H](CC(C)C)C(=O)N[C@@H](CCC(=O)O)C(=O)N[C@@H](CO)C(=O)N[C@@H](C)C(N)=O)[C@@H](C)CC)C(=O)O` [Compound 25, H-H-DSer-QGTFTSDYSKYLDE-K(Hexadecanoyl-isoGlu)-AAKDFIEWLESA-NH2]: 0.41 nM, 0.16 nM, 0.31 nM, 0.15 nM and 1.94.
